Test results taken from paper PMC4755933 (Journal of medicinal chemistry, 2015).

Assays:
TRIM24(PHD-bromo) = biological target: T1, TRIM24(PHD-bromo) (Homo sapiens, UniProt O15164); settings: TRIM24 AlphaLisa assay in HeLa cells, in words
T1 sequence (O15164 824-1006 limits assumed): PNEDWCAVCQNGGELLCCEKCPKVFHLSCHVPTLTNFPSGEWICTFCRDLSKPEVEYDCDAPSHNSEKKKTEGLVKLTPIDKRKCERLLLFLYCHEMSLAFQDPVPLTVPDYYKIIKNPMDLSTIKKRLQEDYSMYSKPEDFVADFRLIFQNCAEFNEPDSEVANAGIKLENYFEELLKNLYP

[1] = CACO-2 permeability assay
bromodomain of TRIM24 = biological target: T2, bromodomain of TRIM24 (Homo sapiens, UniProt O15164); test: AlphaScreen biochemical bromodomain-H3K23; assay type: binding; settings: from TRIM24 IC50
T2 sequence (O15164 899-1004 limits assumed): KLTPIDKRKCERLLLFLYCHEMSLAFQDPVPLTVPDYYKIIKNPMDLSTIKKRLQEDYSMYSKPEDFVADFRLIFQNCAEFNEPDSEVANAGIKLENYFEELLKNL

panel of 32 bromodomains = settings: 1 μM concentration

| Compound | ligand efficiency (LE) (bromodomain of TRIM24) | other results |
| --- | --- | --- |
| Cn1cnc(S(=O)(=O)Nc2cc3c(cc2Oc2ccc(OCc4ccccc4)cc2)n(C)c(=O)n3C)c1 [Compound 6, N-{6-[4-(benzyloxy)phenoxy]-1,3-dimethyl-2-oxo-2,3-dihydro-1H-1,3-benzodiazol-5-yl}-1-methyl-1H-imidazole-4-sulfonamide] | – | cellular activity (TRIM24(PHD-bromo)): no cellular activity |
| COc1ccc(S(=O)(=O)Nc2cc3c(cc2Oc2cccc(OCc4ccccc4)c2)n(C)c(=O)n3C)cc1OC [Compound 7b, N-{6-[3-(benzyloxy)phenoxy]-1,3-dimethyl-2-oxo-2,3-dihydro-1H-1,3-benzodiazol-5-yl}-3,4-dimethoxybenzene-1-sulfonamide] | 0.23 | CACO-2 flux from the apical to basolateral side (Papp) [1]: 21 Papp×10^−6 cm·s^−1 |
| CC(C)COc1cccc(Oc2ccc3c(c2)n(C)c(=O)n3C)c1 [Compound 7j, 1,3-dimethyl-5-[3-(2-methylpropoxy)phenoxy]-2,3-dihydro-1H-1,3-benzodiazol-2-one] | – | cellular activity (TRIM24(PHD-bromo)): no cellular activity |
| CCCOc1cc(OCCCCN(C)C)cc(Oc2cc3c(cc2NS(=O)(=O)c2ccc(OC)c(OC)c2)n(C)c(=O)n3C)c1 [Compound 8i, N-(6-{3-[4-(dimethylamino)butoxy]-5-propoxyphenoxy}-1,3-dimethyl-2-oxo-2,3-dihydro-1H-1,3-benzodiazol-5-yl)-3,4-dimethoxybenzene-1-sulfonamide] | – | interactions against 26 other bromodomains (panel of 32 bromodomains): No interactions were detected |
| CCCOc1cccc(Oc2cc3c(cc2NS(=O)(=O)c2ccc(OC)c(OC)c2)n(C)c(=O)n3C)c1 [Compound 7e, N-[1,3-dimethyl-2-oxo-6-(3-propoxyphenoxy)-2,3-dihydro-1H-1,3-benzodiazol-5-yl]-3,4-dimethoxybenzene-1-sulfonamide] | 0.27 | – |
| Cn1c(=O)n(C)c2cc(NS(=O)(=O)c3ccc(C4CCCCC4)cc3)ccc21 [Compound 5e, 4-cyclohexyl-N-(1,3-dimethyl-2-oxo-2,3-dihydro-1H-1,3-benzodiazol-5-yl)benzene-1-sulfonamide] | 0.28 | – |
| Cc1nc(-c2ccc3c(c2)CC(=O)N3C)cs1 [Compound 1] | 0.41 | – |
| COc1ccc(Oc2cc3c(cc2NS(=O)(=O)c2ccccc2)n(C)c(=O)n3C)cc1 [Compound 5g] | 0.26 | – |
